# Data published in patent US11771778B2, “Using DREADD for neuronal modulation in treating neuronal diseases” (priority 2016, dated 2023).
# Experiments:
# [1] = molecular target: T1, wild-type M3 muscarinic receptor (hM3) (Homo sapiens, UniProt P20309); conditions: human pulmonary artery smooth muscle cells (Armbruster et al., 2007); cited from earlier work
# T1 construct: host or cells: human pulmonary artery smooth muscle cells
# hM3Dq receptor (hM3D) = molecular target: T2, hM3Dq receptor (hM3D) (Homo sapiens, UniProt P20309, A239G/Y149C); conditions: human pulmonary artery smooth muscle cells (Armbruster et al., 2007); cited from earlier work
# T2 construct: host or cells: human pulmonary artery smooth muscle cells
# T2 sequence (P20309 whole entry Y149C/A239G): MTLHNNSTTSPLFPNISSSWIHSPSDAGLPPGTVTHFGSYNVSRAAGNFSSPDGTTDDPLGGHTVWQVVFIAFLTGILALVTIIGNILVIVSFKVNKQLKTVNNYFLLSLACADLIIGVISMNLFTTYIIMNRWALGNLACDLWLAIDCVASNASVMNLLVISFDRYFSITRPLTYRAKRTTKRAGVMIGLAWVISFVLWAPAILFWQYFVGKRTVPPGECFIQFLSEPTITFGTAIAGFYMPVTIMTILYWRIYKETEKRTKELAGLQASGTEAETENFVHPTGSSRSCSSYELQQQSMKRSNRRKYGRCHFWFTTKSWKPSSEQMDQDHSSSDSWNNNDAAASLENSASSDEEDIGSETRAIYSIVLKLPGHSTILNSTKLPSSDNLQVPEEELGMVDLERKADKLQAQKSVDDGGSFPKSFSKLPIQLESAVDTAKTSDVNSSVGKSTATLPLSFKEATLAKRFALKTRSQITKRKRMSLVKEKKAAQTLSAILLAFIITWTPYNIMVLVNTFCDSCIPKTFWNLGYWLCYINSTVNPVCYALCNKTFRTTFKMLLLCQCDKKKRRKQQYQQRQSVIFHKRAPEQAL
# [2] = Rotarod test, mice without DREADD (normal control and 6OHDA hemi PD); format: in vivo, C57 black mice; conditions: normal control and 6OHDA hemi PD mice, no DREADD; IP CNO 5 mg/kg, blinded
# Experimental: (§1) To monitor the motor impairment and the ability of the DREADD therapy to reverse these impairments the following behavioral tests are conducted. Open field test: to measure motor activity dysfunction. In this test the spontaneous movement of mice in a square arena are recorded and quantified. Rotarod test: Mice were placed on a rotating rod with rotation speed gradually increasing from 4 to 40 RPM using a preset acceleration program. The time mice fell from the rotating rod was measured, with 300 seconds being the maximal time measured on the rod.
# (§2) Experiments were performed on 2-4 month old wild type C57 black mice. […]
# (§3) Two behavioral tests were used for monitoring the behavior of mice: (1) Open field test: Mice were placed in a 30 cm×30 cm×30 cm open top box for 5 minutes and continuous recorded on a video. The results were analyzed off-line after the experiments ended. Using the EthoVision software, the mean velocity and distance traveled by the mice were monitored during the 5 minutes of open field test. In addition, the number and direction of 180° turns were monitored with the EthoVision software. […] The time mice fell from the rotating rod was measured, with 300 seconds being the maximal time measured on the rod. […]
# [3] = molecular target: T3, Gq DREADD (hM3D(Gq)) in the STN (Homo sapiens, UniProt P20309, A239G/Y149C); assay: Open field test, 6OHDA PD mice expressing Gq DREADD in STN; format: in vivo, C57 black mice; conditions: IP CNO 5 mg/kg
# T3 construct: expressed in transfected cells; host or cells: neurons of C57 black mice (GPe or STN), transduced with an AAV8 vector under the hSyn promoter
# T3 sequence (P20309 whole entry Y149C/A239G): as above
# Experimental: as §1
# (§4) Experiments were performed on 2-4 month old wild type C57 black mice. To induce experimental PD, 1 microliter of a solution containing 6 hydroxy dopamine (6-OHDA) (3 mg/1 ml) was injected into the medial forebrain bundle via a small craniotomy drilled in the skull. The mouse head was fixated in a stereotaxic frame, and the 6OHDA containing solution was injected using a glass pipette held by a micro-manipulator and a micro-injector.
# (§5) To express DREADDs (either the inhibitory DREADD Gi or the excitatory DREADD Gq) viral vectors were injected (either AAV8-hSyn-hM3D(Gq)-mCherry or AAV8-hSyn-hM4D(Gi)-mCherry). The viral vectors were injected through a craniotomy with a glass pipette held by a micromanipulator and a micro-injector. During the injections the head was fixated in a stereotaxic frame for accurate injections. Mice were anesthetized throughout the procedure with isoflurane.
# (§6) The viral vectors […] were injected into several targets in the basal ganglia loop including the STN (either Gi and Gq), the EP and SNr nuclei (Gi), GPe (Gq) and the ventral thalamus (Gq). The injections were usually unilateral at the side of the 6OHDA injections. However, in cases of bilateral 6OHDA injections viral vectors were injected to the target nuclei bilaterally. Usually viral vectors and 6OHDA were injected at the same session.
# (§7) To investigate the effect of DREADD activation, 500 μl of either IP CNO (5 mg/kg) or normal saline (NS-0.9% NaCl) was administered. Administration of either CNO or saline was performed in a blinded manner. […] Behavioral experiments were performed approximately 20-30 minutes after IP drug administration.
# as §3
# [4] = molecular target: T4, Gi DREADD (hM4D(Gi)) in the EP (GPi) and SNr nuclei (Homo sapiens, UniProt P08173, A203G/Y113C); assay: Open field test, 6OHDA PD mice expressing Gi DREADD in EP and SNr; format: in vivo, C57 black mice
# T4 construct: expressed in transfected cells; host or cells: neurons of C57 black mice (EP/SNr or STN), transduced with an AAV8 vector under the hSyn promoter
# T4 sequence (P08173 1-479 Y113C/A203G): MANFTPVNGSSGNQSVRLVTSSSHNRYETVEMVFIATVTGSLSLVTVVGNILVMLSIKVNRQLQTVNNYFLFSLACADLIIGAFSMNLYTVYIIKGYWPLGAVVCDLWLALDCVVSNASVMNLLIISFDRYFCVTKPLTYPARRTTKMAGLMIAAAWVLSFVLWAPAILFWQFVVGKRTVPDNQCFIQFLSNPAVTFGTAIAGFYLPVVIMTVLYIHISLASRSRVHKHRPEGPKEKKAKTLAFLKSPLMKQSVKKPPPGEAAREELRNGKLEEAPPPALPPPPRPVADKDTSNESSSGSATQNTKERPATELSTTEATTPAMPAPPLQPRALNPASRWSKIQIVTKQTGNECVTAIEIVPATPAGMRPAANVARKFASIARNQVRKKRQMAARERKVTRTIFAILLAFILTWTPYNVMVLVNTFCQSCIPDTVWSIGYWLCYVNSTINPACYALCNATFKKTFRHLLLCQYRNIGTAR
# Experimental: as §1, §4, §5, §6, §7, §3
# [5] = molecular target: T5, Gq DREADD (hM3D(Gq)) in the GPe nucleus (Homo sapiens, UniProt P20309, A239G/Y149C); assay: Rotarod test, 6OHDA PD mice expressing Gq DREADD in GPe; format: in vivo, C57 black mice
# T5 construct: expressed in transfected cells; host or cells: neurons of C57 black mice (GPe or STN), transduced with an AAV8 vector under the hSyn promoter
# T5 sequence (P20309 whole entry Y149C/A239G): as the sequence (P20309 whole entry Y149C/A239G) above
# Experimental: as §1, §2, §3
# [6] = molecular target: T4, Gi DREADD (hM4D(Gi)) in the EP (GPi) and SNr nuclei; assay: Rotarod test, 6OHDA PD mice expressing Gi DREADD in EP and SNr; format: in vivo, C57 black mice
# Experimental: as §1, §2, §3
# [7] = Open field test, mice without DREADD (normal control and 6OHDA hemi PD); format: in vivo, C57 black mice; conditions: normal control and 6OHDA hemi PD mice, no DREADD, IP CNO 5 mg/kg, blinded
# Experimental: as §1, §2, §3
# [8] = molecular target: T6, Gi DREADD (hM4D(Gi)) in the STN (Homo sapiens, UniProt P08173, A203G/Y113C); assay: Rotarod test, 6OHDA PD mice expressing Gi DREADD in STN; format: in vivo, C57 black mice; conditions: blinded IP CNO
# T6 construct: expressed in transfected cells; host or cells: neurons of C57 black mice (EP/SNr or STN), transduced with an AAV8 vector under the hSyn promoter
# T6 sequence (P08173 1-479 Y113C/A203G): T4 sequence (P08173 1-479 Y113C/A203G)
# Experimental: as §1, §2, §3
# [9] = molecular target: T3, Gq DREADD (hM3D(Gq)) in the STN; assay: Rotarod test, 6OHDA PD mice expressing Gq DREADD in STN; format: in vivo, C57 black mice; conditions: IP CNO 5 mg/kg
# Experimental: as §1, §2, §3
# [10] = molecular target: T6, Gi DREADD (hM4D(Gi)) in the STN; assay: Open field test, 6OHDA PD mice expressing Gi DREADD in STN; format: in vivo, C57 black mice; conditions: blinded IP CNO
# Experimental: as §1, §2, §3
# [11] = molecular target: T5, Gq DREADD (hM3D(Gq)) in the GPe nucleus; assay: Open field test, 6OHDA PD mice expressing Gq DREADD in GPe; format: in vivo, C57 black mice
# Experimental: as §1, §4, §5
# as §6, with “session. […]” for “session.”
# as §3
# In this set of experiments, the GPe nucleus, which serves as a major relay nucleus exclusively belonging to the indirect pathway, was targeted. More specifically, the GPe neurons were activated using the excitatory Gq DREADDs, and the effect on behavior on 6-OHDA induced hemi-parkinsonian mice, was monitored.
# [12] = 6OHDA hemi PD mice, unilateral Gq DREADD in STN
# [13] = bilateral 6OHDA PD mice, bilateral Gq DREADD in STN
# [14] = 6OHDA bilateral PD mice, bilateral Gi DREADD in both EP and SNr nuclei, p<0.01
# [15] = 6OHDA hemi PD mice, unilateral Gi DREADD in EP and SNr, IP CNO 5 mg/kg
# [16] = 6OHDA bilateral PD mice, Gq DREADD in both GPe nuclei, p<0.01
# [17] = 6OHDA hemi PD mice, unilateral Gq DREADD in GPe, IP CNO 5 mg/kg
# T1 sequence (P20309 whole entry): as the sequence (P20309 whole entry Y149C/A239G) above, with C149Y, G239A counted along it
smiles,measurement,setting,value
CC(=O)OCC[N+](C)(C)C [ACh],activation of wild-type M3 muscarinic receptor (hM3),[1],potently activated
"C[N+]1([O-])CCN(C2=Nc3cc(Cl)ccc3Nc3ccccc32)CC1 [CNO, clozapine-N-oxide]",activation of hM3Dq receptor resulting in PIP2 hydrolysis,hM3Dq receptor (hM3D),selectively activated
same,"time to falling off the rotating rod, CNO vs NS",[2],no significant differences
same,increase in the mean velocity in the open field test compared to NS,[3]; [12],117.6±26.9%
same,reduction in the number of clockwise rotations compared to NS,[3]; [12],37.2±17%
same,reduction in the percent of clockwise rotations compared to NS,[3]; [12],47.6±11.1%
same,increase in the mean velocity in the open field test compared to NS,[3]; [13],294.4±70.9%
same,"mean velocity in motor activity test, CNO vs NS",[4]; [14],beneficial effect
same,improvement in the mean velocity in the open field test compared to NS,[4]; [15],36±9%
same,reduction in the number of clockwise rotations compared to NS,[4]; [15],68.9±10.8%
same,reduction in the percent of clockwise rotations compared to NS,[4]; [15],46±8.6%
same,"average time on the rotating rod in the rotarod test, CNO vs NS",[5]; [16],beneficial effect
same,increase in the time spent on the rotating rod in the rotarod test compared to NS,[5]; [17],25.6±6.1%
same,"average time on the rotating rod in the rotarod test, CNO vs NS",[6]; [14],beneficial effect
same,increase in the time spent on the rotating rod in the rotarod test compared to NS,[6]; [15],30.5±7.1%
same,"movement velocity in the open field test, CNO vs NS",[7],no significant differences
same,"ipsilateral turning (number and percent of clockwise rotations), CNO vs NS",[7]; 5-minute open field,no significant differences
same,activation of wild-type M3 muscarinic receptor (hM3),[1],not by CNO
same,"performances in the rotarod test, CNO vs NS",[8],did not significantly affect
same,"performances in the rotarod test, CNO vs NS",[9]; [12],no significant differences
same,increase in the time before falling off the rotarod compared to NS,[9]; [13],81±15.8%
same,"effect on turns, CNO vs NS",[10],"small, yet significant beneficial effect"
same,"mean velocity in the open field test, CNO vs NS",[10],did not significantly affect
same,"mean velocity in motor activity test, CNO vs NS",[11]; [16],beneficial effect
same,increase in the mean velocity in the open field test compared to NS,[11]; [17],77.2±24.7%
same,reduction in the number of clockwise rotations compared to NS,[11]; [17],37.7±20%
same,reduction in the percent of clockwise rotations compared to NS,[11]; [17],40±7.8%
